{"source": "ChEMBL document CHEMBL1146661", "about": "“The effect of 6-substituted-4',4\"-difluorobenztropines on monoamine transporters and the muscarinic M1 receptor” (Bioorg Med Chem Lett, 2004)", "key": {"Rattus norvegicus": {"species_on_record": "Rattus norvegicus", "assay": "Relative affinity for dopamine transporter and muscarinic acetylcholine M1 receptor"}, "[1]": {"target": "T1, Muscarinic acetylcholine receptor M1 (Rattus norvegicus, UniProt P08482)", "T1 sequence (P08482 whole entry)": "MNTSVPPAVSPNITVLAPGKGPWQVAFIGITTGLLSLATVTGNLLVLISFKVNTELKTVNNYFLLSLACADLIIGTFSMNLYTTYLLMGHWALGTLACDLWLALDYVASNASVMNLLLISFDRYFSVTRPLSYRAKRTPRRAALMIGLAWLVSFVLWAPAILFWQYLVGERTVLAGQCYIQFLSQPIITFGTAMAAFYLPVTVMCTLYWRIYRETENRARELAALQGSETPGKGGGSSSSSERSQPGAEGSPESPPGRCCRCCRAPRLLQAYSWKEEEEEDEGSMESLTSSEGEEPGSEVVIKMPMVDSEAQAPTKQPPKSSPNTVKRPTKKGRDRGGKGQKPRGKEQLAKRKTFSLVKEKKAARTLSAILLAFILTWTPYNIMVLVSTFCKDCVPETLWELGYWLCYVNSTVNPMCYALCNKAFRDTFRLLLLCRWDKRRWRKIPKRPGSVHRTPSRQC", "assay": "Displacement of [3H]pirenzepine from muscarinic acetylcholine receptor M1 of rat brain membrane"}, "[2]": {"target": "Monoamine transporters; serotonin & dopamine (Rattus norvegicus) (UniProt P31652+P23977)", "sequence (P23977 whole entry, looked up)": "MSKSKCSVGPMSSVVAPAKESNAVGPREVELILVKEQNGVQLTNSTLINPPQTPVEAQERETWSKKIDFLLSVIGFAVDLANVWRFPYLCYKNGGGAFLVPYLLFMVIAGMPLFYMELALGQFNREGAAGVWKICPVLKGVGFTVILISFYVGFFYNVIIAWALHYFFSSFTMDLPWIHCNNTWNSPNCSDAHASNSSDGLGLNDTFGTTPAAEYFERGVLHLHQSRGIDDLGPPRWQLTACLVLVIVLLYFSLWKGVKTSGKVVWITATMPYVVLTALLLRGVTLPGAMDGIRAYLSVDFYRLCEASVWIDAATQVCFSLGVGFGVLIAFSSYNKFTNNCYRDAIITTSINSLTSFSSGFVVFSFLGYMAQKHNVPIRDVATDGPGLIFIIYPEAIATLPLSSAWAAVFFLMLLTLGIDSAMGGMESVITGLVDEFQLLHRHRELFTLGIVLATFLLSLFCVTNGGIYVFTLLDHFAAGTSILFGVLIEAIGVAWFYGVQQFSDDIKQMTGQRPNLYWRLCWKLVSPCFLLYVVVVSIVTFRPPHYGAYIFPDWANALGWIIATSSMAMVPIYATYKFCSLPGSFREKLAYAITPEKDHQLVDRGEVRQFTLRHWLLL", "sequence (P31652 whole entry, looked up)": "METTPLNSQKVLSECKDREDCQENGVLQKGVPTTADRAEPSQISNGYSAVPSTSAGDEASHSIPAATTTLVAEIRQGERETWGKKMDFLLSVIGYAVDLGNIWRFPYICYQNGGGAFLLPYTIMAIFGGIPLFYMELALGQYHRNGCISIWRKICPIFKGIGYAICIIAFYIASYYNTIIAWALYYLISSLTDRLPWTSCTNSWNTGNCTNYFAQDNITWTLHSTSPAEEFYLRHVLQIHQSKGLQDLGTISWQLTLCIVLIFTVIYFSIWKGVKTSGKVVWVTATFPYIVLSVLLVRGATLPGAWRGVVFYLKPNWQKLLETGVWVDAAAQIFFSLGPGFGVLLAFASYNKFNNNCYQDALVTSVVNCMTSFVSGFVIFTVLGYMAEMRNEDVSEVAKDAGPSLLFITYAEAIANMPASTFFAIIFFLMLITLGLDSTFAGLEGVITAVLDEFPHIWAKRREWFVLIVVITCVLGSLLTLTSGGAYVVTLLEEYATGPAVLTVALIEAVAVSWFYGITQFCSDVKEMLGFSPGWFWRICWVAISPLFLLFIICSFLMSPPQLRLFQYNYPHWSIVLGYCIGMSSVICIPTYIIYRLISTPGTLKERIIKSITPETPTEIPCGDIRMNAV", "assay": "Relative affinity for dopamine and serotonin transporters", "type": "protein assay"}, "[3]": {"target": "Sodium-dependent dopamine transporter (Rattus norvegicus, UniProt P23977)", "sequence (P23977 whole entry)": "as the sequence (P23977 whole entry, looked up) above", "assay": "Displacement of [3H]WIN-35428 from dopamine transporter of rat brain membrane", "type": "tissue-based"}, "[4]": {"target": "Monoamine transporters; Norepininephrine & dopamine (Rattus norvegicus) (UniProt P23977+Q9WTR4)", "assay": "Relative affinity for dopamine and norepinephrine transporters", "type": "protein assay"}, "[5]": {"target": "Norepinephrine transporter (Rattus norvegicus, UniProt Q9WTR4)", "sequence (Q9WTR4 whole entry)": "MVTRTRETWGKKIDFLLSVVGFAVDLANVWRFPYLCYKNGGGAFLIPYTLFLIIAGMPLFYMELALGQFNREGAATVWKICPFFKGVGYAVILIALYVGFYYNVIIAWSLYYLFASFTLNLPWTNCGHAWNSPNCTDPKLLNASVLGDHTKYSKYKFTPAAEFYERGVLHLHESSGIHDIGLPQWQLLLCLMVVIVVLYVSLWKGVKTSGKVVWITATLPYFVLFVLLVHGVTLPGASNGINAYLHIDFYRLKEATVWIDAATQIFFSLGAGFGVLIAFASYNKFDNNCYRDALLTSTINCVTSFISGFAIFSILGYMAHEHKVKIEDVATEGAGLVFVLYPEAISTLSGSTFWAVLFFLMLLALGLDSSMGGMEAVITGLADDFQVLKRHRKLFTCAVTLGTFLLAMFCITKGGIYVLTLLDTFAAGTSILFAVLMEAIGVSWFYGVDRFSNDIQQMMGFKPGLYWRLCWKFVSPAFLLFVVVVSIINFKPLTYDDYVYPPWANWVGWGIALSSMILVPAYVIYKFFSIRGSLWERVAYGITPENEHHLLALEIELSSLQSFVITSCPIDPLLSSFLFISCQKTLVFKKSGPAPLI", "assay": "Displacement of [3H]-[…] from norepinephrine transporter of rat brain membrane", "type": "tissue-based"}, "[6]": {"target": "T2, Sodium-dependent serotonin transporter (Rattus norvegicus, UniProt P31652)", "T2 sequence (P31652 whole entry)": "as the sequence (P31652 whole entry, looked up) above", "assay": "Displacement of [3H]-citalopram from serotonin transporter of rat brain membrane", "type": "tissue-based"}, "[7]": {"target": "T2, Sodium-dependent serotonin transporter", "assay": "Displacement of [3H]citalopram from serotonin transporter of rat brain membrane", "type": "tissue-based"}}}
{"smiles": "COS(=O)(=O)[C@H]1CC2C[C@H](OC(c3ccc(F)cc3)c3ccc(F)cc3)CC1N2C", "note": "(stereo partly specified)", "values": [{"measurement": "Selectivity", "setting": "Rattus norvegicus", "value": 8}, {"measurement": "Ki", "setting": "[1]", "value": 0.617, "unit": "µM"}, {"measurement": "Selectivity", "setting": "[2]", "value": 170}, {"measurement": "Ki", "setting": "[3]", "value": 0.081, "unit": "µM"}, {"measurement": "Selectivity", "setting": "[4]", "value": 85}, {"measurement": "Ki", "setting": "[5]", "value": 6.88, "unit": "µM"}, {"measurement": "Ki", "setting": "[6]", "value": 13.8, "unit": "µM"}]}
{"smiles": "O=C(Oc1ccccc1)[C@H]1CC2C[C@H](OC(c3ccc(F)cc3)c3ccc(F)cc3)CC1N2", "note": "(stereo partly specified)", "values": [{"measurement": "Selectivity", "setting": "Rattus norvegicus", "value": 48}, {"measurement": "Ki", "setting": "[1]", "value": 8.43, "unit": "µM"}, {"measurement": "Selectivity", "setting": "[2]", "value": 25}, {"measurement": "Ki", "setting": "[3]", "value": 0.175, "unit": "µM"}, {"measurement": "Selectivity", "setting": "[4]", "value": 18}, {"measurement": "Ki", "setting": "[5]", "value": 3.17, "unit": "µM"}, {"measurement": "Ki", "setting": "[6]", "value": 4.44, "unit": "µM"}]}
{"smiles": "CN1C2C[C@H](OC(c3ccc(F)cc3)c3ccc(F)cc3)CC1[C@@H](C(=O)OCc1ccccc1)C2", "note": "(stereo partly specified)", "values": [{"measurement": "Selectivity", "setting": "Rattus norvegicus", "value": 19}, {"measurement": "Ki", "setting": "[1]", "value": 2.27, "unit": "µM"}, {"measurement": "Selectivity", "setting": "[2]", "value": 49}, {"measurement": "Ki", "setting": "[3]", "value": 0.119, "unit": "µM"}, {"measurement": "Selectivity", "setting": "[4]", "value": 52}, {"measurement": "Ki", "setting": "[5]", "value": 6.21, "unit": "µM"}, {"measurement": "Ki", "setting": "[6]", "value": 5.85, "unit": "µM"}]}
{"smiles": "CC(C)COC(=O)[C@H]1CC2C[C@H](OC(c3ccc(F)cc3)c3ccc(F)cc3)CC1N2C", "note": "(stereo partly specified)", "values": [{"measurement": "Selectivity", "setting": "Rattus norvegicus", "value": 5}, {"measurement": "Ki", "setting": "[1]", "value": 0.723, "unit": "µM"}, {"measurement": "Selectivity", "setting": "[2]", "value": 54}, {"measurement": "Ki", "setting": "[3]", "value": 0.148, "unit": "µM"}, {"measurement": "Selectivity", "setting": "[4]", "value": 45}, {"measurement": "Ki", "setting": "[5]", "value": 6.61, "unit": "µM"}, {"measurement": "Ki", "setting": "[6]", "value": 7.96, "unit": "µM"}]}
{"smiles": "CCOC(=O)[C@H]1CC2C[C@H](OC(c3ccc(F)cc3)c3ccc(F)cc3)CC1N2C", "note": "(stereo partly specified)", "values": [{"measurement": "Selectivity", "setting": "Rattus norvegicus", "value": 2}, {"measurement": "Ki", "setting": "[1]", "value": 0.142, "unit": "µM"}, {"measurement": "Selectivity", "setting": "[2]", "value": 186}, {"measurement": "Ki", "setting": "[3]", "value": 0.0754, "unit": "µM"}, {"measurement": "Selectivity", "setting": "[4]", "value": 49}, {"measurement": "Ki", "setting": "[5]", "value": 3.72, "unit": "µM"}, {"measurement": "Ki", "setting": "[6]", "value": 14, "unit": "µM"}]}
{"smiles": "CN1C2CC(OC(c3ccc(F)cc3)c3ccc(F)cc3)CC1[C@H](O)C2", "note": "(stereo partly specified)", "values": [{"measurement": "Selectivity", "setting": "Rattus norvegicus", "value": 1}, {"measurement": "Ki", "setting": "[1]", "value": 0.027, "unit": "µM"}, {"measurement": "Selectivity", "setting": "[2]", "value": 374}, {"measurement": "Ki", "setting": "[3]", "value": 0.0313, "unit": "µM"}, {"measurement": "Selectivity", "setting": "[4]", "value": 204}, {"measurement": "Ki", "setting": "[5]", "value": 6.39, "unit": "µM"}, {"measurement": "Ki", "setting": "[6]", "value": 11.7, "unit": "µM"}]}
{"smiles": "COC(=O)[C@@H]1C2CC[C@@H](C[C@@H]1OC(=O)c1ccccc1)N2C", "note": "(single isomer, unassigned) [COCAINE]", "values": [{"measurement": "Ki", "setting": "[1]", "value": 61.4, "unit": "µM"}]}
{"smiles": "CN1C2CC(OC(c3ccc(F)cc3)c3ccc(F)cc3)CC1[C@@H](O)C2", "note": "(stereo partly specified)", "values": [{"measurement": "Selectivity", "setting": "Rattus norvegicus", "value": 8}, {"measurement": "Ki", "setting": "[1]", "value": 0.0483, "unit": "µM"}, {"measurement": "Selectivity", "setting": "[2]", "value": 1450}, {"measurement": "Ki", "setting": "[7]", "value": 9.09, "unit": "µM"}, {"measurement": "Ki", "setting": "[3]", "value": 0.00628, "unit": "µM"}, {"measurement": "Selectivity", "setting": "[4]", "value": 207}, {"measurement": "Ki", "setting": "[5]", "value": 1.3, "unit": "µM"}]}
{"smiles": "CN1C2C[C@H](OC(c3ccc(F)cc3)c3ccc(F)cc3)CC1[C@@H](C(=O)OCCc1ccccc1)C2", "note": "(stereo partly specified)", "values": [{"measurement": "Selectivity", "setting": "Rattus norvegicus", "value": 20}, {"measurement": "Ki", "setting": "[1]", "value": 3.48, "unit": "µM"}, {"measurement": "Selectivity", "setting": "[2]", "value": 47}, {"measurement": "Ki", "setting": "[3]", "value": 0.171, "unit": "µM"}, {"measurement": "Selectivity", "setting": "[4]", "value": 33}, {"measurement": "Ki", "setting": "[5]", "value": 5.69, "unit": "µM"}, {"measurement": "Ki", "setting": "[6]", "value": 7.96, "unit": "µM"}]}
{"smiles": "CN1C2C[C@H](OC(c3ccc(F)cc3)c3ccc(F)cc3)CC1[C@@H](C(=O)Oc1ccccc1)C2", "note": "(stereo partly specified)", "values": [{"measurement": "Selectivity", "setting": "Rattus norvegicus", "value": 5}, {"measurement": "Ki", "setting": "[1]", "value": 0.552, "unit": "µM"}, {"measurement": "Selectivity", "setting": "[2]", "value": 35}, {"measurement": "Ki", "setting": "[3]", "value": 0.107, "unit": "µM"}, {"measurement": "Selectivity", "setting": "[4]", "value": 13}, {"measurement": "Ki", "setting": "[5]", "value": 1.37, "unit": "µM"}, {"measurement": "Ki", "setting": "[6]", "value": 3.73, "unit": "µM"}]}
{"smiles": "CC(C)OC(=O)[C@H]1CC2C[C@H](OC(c3ccc(F)cc3)c3ccc(F)cc3)CC1N2C", "note": "(stereo partly specified)", "values": [{"measurement": "Selectivity", "setting": "Rattus norvegicus", "value": 5}, {"measurement": "Ki", "setting": "[1]", "value": 0.784, "unit": "µM"}, {"measurement": "Selectivity", "setting": "[2]", "value": 98}, {"measurement": "Ki", "setting": "[3]", "value": 0.151, "unit": "µM"}, {"measurement": "Selectivity", "setting": "[4]", "value": 68}, {"measurement": "Ki", "setting": "[5]", "value": 10.2, "unit": "µM"}, {"measurement": "Ki", "setting": "[6]", "value": 14.8, "unit": "µM"}]}
{"smiles": "CN1C2CCC1CC(OC(c1ccc(F)cc1)c1ccc(F)cc1)C2", "note": "(stereo unspecified) [DIFLUOROBENZTROPINE]", "values": [{"measurement": "Ki", "setting": "[5]", "value": 0.844, "unit": "µM"}]}
{"smiles": "CN1C2CC(OC(c3ccc(F)cc3)c3ccc(F)cc3)CC1[C@@H](C(=O)O)C2", "note": "(stereo partly specified)", "values": [{"measurement": "Selectivity", "setting": "Rattus norvegicus", "value": 8}, {"measurement": "Ki", "setting": "[1]", "value": 0.0468, "unit": "µM"}, {"measurement": "Selectivity", "setting": "[2]", "value": 1430}, {"measurement": "Ki", "setting": "[3]", "value": 0.00581, "unit": "µM"}, {"measurement": "Selectivity", "setting": "[4]", "value": 238}, {"measurement": "Ki", "setting": "[5]", "value": 1.38, "unit": "µM"}, {"measurement": "Ki", "setting": "[6]", "value": 8.29, "unit": "µM"}]}
{"smiles": "COC(=O)[C@H]1CC2C[C@H](OC(c3ccc(F)cc3)c3ccc(F)cc3)CC1N2C", "note": "(stereo partly specified)", "values": [{"measurement": "Selectivity", "setting": "Rattus norvegicus", "value": 8}, {"measurement": "Ki", "setting": "[1]", "value": 0.432, "unit": "µM"}, {"measurement": "Selectivity", "setting": "[2]", "value": 289}, {"measurement": "Ki", "setting": "[3]", "value": 0.0571, "unit": "µM"}, {"measurement": "Selectivity", "setting": "[4]", "value": 121}, {"measurement": "Ki", "setting": "[5]", "value": 6.91, "unit": "µM"}, {"measurement": "Ki", "setting": "[6]", "value": 16.5, "unit": "µM"}]}
